In ChEMBL document CHEMBL1140351, “Design and synthesis of depeptidized macrocyclic inhibitors of hepatitis C NS3-4A protease using structure-based drug design” (J Med Chem, 2005):

What was measured:
NS3 [1] = molecular target: T1, NS3 (Hepatitis C virus, UniProt A3EZJ3); assay: Ability to inhibit the hydrolysis of chromogenic 4-phenylazophenyl ester from the peptide fragment Ac- DTEDVVP(Nva)-O-4-PAP in a HCV protease continuous assay; design: species or system Hepacivirus hominis
Neutrophil elastase = molecular target: T2, Neutrophil elastase (Homo sapiens, UniProt P08246); assay: Binding constant towards Human neutrophil elastase HNE protease
T2 sequence (P08246 whole entry): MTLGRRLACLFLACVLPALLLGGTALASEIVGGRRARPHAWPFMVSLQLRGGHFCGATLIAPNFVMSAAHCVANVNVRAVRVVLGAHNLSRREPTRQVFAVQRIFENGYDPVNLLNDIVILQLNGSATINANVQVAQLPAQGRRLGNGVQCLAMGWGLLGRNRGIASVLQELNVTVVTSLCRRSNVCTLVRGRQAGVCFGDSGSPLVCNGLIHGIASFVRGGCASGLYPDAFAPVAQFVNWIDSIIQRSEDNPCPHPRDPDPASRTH

NS3 [2] = molecular target: T1, NS3; assay: Ability to inhibit the hydrolysis of chromogenic […] ester from the peptide fragment Ac- DTEDVVP(Nva)-O-4-PAP in a HCV protease continuous assay; design: species or system Hepacivirus hominis

T1 sequence (A3EZJ3 whole entry, the tested form may be a part): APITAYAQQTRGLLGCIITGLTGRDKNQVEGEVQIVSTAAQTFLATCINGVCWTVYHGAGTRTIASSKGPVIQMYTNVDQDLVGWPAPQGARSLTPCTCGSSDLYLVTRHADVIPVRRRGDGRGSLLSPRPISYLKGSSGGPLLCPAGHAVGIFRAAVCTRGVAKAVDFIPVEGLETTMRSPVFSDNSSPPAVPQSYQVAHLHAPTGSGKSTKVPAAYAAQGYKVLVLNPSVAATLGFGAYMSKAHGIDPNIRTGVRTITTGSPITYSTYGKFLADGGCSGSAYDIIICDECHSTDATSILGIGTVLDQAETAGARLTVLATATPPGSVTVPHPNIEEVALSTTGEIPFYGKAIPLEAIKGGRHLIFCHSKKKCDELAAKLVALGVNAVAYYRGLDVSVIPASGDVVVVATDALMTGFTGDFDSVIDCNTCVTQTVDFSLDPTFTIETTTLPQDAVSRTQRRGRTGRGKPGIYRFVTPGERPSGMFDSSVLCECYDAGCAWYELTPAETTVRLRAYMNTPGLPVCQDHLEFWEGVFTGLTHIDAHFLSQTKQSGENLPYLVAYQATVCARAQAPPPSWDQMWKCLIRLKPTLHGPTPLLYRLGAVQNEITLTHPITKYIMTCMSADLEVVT

SMILES	Ki (NS3 [1])	Ki (Neutrophil elastase)	Ki (NS3 [2])
CCC[C@H](NC(=O)[C@@H]1Cc2cccc(c2)Oc2ccc(cc2)C[C@H](NC(=O)OC(C)(C)C)C(=O)N[C@@H](C2CCCCC2)C(=O)N1)C(=O)C(=O)NCC(=O)N[C@H](C(=O)O)c1ccccc1	7800 nM	–	–
CCC[C@H](NC(=O)[C@@H]1Cc2cccc(c2)Oc2ccc(cc2)C[C@H](NC(=O)OC(C)(C)C)C(=O)N[C@@H](C2CCCCC2)C(=O)N1)C(=O)C(=O)NCC(=O)O	12000 nM	–	–
CCC[C@H](NC(=O)[C@@H]1Cc2cccc(c2)Oc2ccc(cc2)C[C@H](NC(C)=O)C(=O)N[C@@H](C2CCCCC2)C(=O)N1)C(=O)C(=O)NCC(=O)N[C@H](C(=O)O)c1ccccc1	800 nM	–	–

These reach a lower Ki (NS3 [1]). Values come first.

Ki (NS3 [1])	Ki (Neutrophil elastase)	Ki (NS3 [2])	SMILES
300 nM	–	–	CCC[C@H](NC(=O)[C@@H]1Cc2cccc(c2)Oc2ccc(cc2)CCCC(=O)N[C@@H](C2CCCCC2)C(=O)N1)C(=O)C(=O)NCC(=O)N[C@H](C(=O)O)c1ccccc1
160 nM	–	300 nM	CCC[C@H](NC(=O)[C@@H]1Cc2cccc(c2)Oc2ccc(cc2)CCCCC(=O)N[C@@H](C2CCCCC2)C(=O)N1)C(=O)C(=O)NCC(=O)N[C@H](C(=O)O)c1ccccc1
110 nM	2900 nM	–	CCC[C@H](NC(=O)[C@@H]1Cc2cccc(c2)Oc2ccc(cc2)CCC(=O)N[C@@H](C2CCCCC2)C(=O)N1)C(=O)C(=O)NCC(=O)N[C@H](C(=O)O)c1ccccc1
